Paper PMC6130761, “Isolation, crystal structure determination and cholinesterase inhibitory potential of isotalatizidine hydrate from Delphinium denudatum” (Pharmaceutical Biology, 2016)

What was measured:
[1] = biological target: T1, BChE (horse-serum E.C 3.1.1.8) (Equus caballus, UniProt P81908); test: Cholinesterase inhibition assay (Ellman spectrophotometric method), BChE; assay type: biochemical; conditions: for Type of inhibition (BChE): Lineweaver-Burk, Dixon plots and replots, 50, 75, 100 μM of compound 1
T1 construct: purchased Sigma Aldrich; host or cells: horse serum
T1 sequence (P81908 whole entry): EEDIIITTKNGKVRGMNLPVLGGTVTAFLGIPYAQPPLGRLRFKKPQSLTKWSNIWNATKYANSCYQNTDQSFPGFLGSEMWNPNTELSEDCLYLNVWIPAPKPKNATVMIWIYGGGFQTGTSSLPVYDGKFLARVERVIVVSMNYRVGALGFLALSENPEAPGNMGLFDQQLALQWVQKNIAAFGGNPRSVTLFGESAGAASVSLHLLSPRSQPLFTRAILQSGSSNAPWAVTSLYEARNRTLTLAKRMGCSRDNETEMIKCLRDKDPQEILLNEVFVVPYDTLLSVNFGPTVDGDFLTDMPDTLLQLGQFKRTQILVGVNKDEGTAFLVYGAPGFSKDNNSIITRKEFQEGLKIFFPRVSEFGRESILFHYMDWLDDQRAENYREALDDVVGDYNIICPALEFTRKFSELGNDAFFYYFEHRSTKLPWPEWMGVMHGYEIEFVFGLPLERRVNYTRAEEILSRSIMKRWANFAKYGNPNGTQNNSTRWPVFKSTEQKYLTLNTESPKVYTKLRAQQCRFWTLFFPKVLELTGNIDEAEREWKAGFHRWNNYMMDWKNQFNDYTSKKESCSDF
Description: Enzyme (AChE/BChE) inhibition activities were measured by spectrophotometric method as described in literature (Ellman et al. [1961]). Reported protocol and assay conditions were followed throughout (Rocha et al. [1993]). AChI and AChCl substrates were used to assay AChE and BChE, respectively. DTNB was used as reagent for the measurement of cholinesterase activity. Solution containing DTNB (0.2 mM) in 62 mM sodium phosphate buffer (pH 8.0, 880 μL), test compound solution (40 μL) and AChE or BChE solution (40 μL) were mixed, incubated for 15 min (25 °C). AChE or BChE (40 μL), were added to initiate the respective solution. The hydrolysis of AChE and BChE were noted by naked eye due to formation of yellow colour 5-thio-2-nitrobenzoate anion at a wavelength of 412 nm (15 min). Reactions were performed in triplicate in a BMS spectrophotometer (USA) and the results presented are average values.

[2] = biological target: T2, AChE (Electric-eel EC 3.1.1.7) (Electrophorus electricus, UniProt O42275); test: biochemical; assay type: biochemical; conditions: for Type of inhibition (AChE): Lineweaver-Burk, Dixon plots and replots, 50, 75, 100 μM of compound 1
T2 construct: purchased Sigma Aldrich
T2 sequence (O42275 24-633): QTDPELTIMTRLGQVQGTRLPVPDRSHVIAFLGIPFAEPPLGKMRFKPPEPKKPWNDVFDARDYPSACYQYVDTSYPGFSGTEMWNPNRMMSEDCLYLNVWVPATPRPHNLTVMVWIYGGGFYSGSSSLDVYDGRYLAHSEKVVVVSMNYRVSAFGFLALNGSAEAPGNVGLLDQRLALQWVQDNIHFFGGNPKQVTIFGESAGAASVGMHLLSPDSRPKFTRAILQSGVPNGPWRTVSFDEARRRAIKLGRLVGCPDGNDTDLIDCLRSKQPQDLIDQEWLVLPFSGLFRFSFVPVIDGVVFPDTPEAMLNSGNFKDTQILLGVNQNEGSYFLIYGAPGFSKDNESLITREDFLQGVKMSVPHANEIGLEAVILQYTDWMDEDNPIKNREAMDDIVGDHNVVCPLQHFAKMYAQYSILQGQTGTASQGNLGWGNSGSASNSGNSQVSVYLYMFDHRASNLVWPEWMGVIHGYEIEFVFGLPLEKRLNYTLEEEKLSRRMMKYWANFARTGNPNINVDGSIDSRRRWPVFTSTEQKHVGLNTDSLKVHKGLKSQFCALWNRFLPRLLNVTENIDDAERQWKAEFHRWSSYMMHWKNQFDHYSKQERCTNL

[3] = listed as isotalatazidine hydrate
[4] = listed as isotalatizidine hydrate

## CCN1CC2(COC)CCC(O)C34C5CC6C(OC)CC(O)(C(CC23)C14)C5C6O (centres unmarked) [Isotalatizidine hydrate, isotalatizidine hydrate]
[1]
  Type of inhibition (BChE): Competitive
[1]; [3]
  Type of inhibition (BChE): competitive type inhibition
[1]; [4]
  Type of inhibition (BChE): competitive inhibitor
[1]; standard error of mean of five assays, DTNB, pH 8.0, 25 °C, read-out: BChE ± SEM (IC50)
  IC50: 21.4 ± 0.23 µM
[2]
  Type of inhibition (AChE): Competitive
[2]; [3]
  Type of inhibition (AChE): competitive type inhibition
[2]; [4]
  Type of inhibition (AChE): competitive inhibitor
[2]; standard error of mean of five assays, DTNB, pH 8.0, 25 °C, read-out: AChE ± SEM (IC50)
  IC50: 12.1 ± 0.43 µM
